The record followed here is article PMC7086363, “All-stage precisional glioma targeted therapy enabled by a well-designed D-peptide” (Theranostics, 2020).

One assay relates to intracranial U87 glioma. The assay can be described thus: Kaplan-Meier survival of intracranial glioma bearing nude mice. Conditions: n = 8. It is filed as in vivo. On the procedure:
The intracranial glioma bearing mice were used to evaluate the anti-glioma efficacy of various therapeutic regimen.
Concurrent combination chemotherapy has been emerging as a promising approach to improve the efficacy of cancer therapy [29]-[31]. Thus, ^DWVAP Micelle/PTL was used in combination with TMZ and ^DWVAP Micelle/PTX respectively in the present study. For TMZ dosage regimen, mice were randomly divided into four groups (n = 8) and treated with 100 μL of saline, ^DWVAP Micelle/PTL (5 mg/kg), TMZ (10 mg/kg) and ^DWVAP Micelle/PTL plus TMZ (5 mg/kg and 10 mg/kg, respectively) via oral gavage or tail vein. […] Compared with TMZ, the combinational therapy prolonged the median survival time by 2.10 times (Figure 6A). […] The slices were also stained with anti-CD133 antibody to quantify glioma stem cells. […]
Figure 6 Kaplan-Meier survival curves of intracranial glioblastoma-implanted nude mice treated with different regimens. […] Quantification of angiogenesis inhibition in tumors with different formulations in comparison to saline group (D). […] Quantification of TUNEL positive cells in tumors with different formulations in comparison to saline group (F). […] Quantification of tumor stem cell inhibition in tumors with different formulations in comparison to saline group (H). […]

Assay [1] deals with NF-κB p65 nuclear translocation in U87 cells. The assay can be described thus: NF-κB activation and nuclear translocation assay (immunofluorescence). It is filed as cell-based. The note with it: 24 h treatment, Figure 7D-F. The text has this:
NF-κB plays a pivotal role in tumorigenesis through multiple signaling pathways. Aberrant activation of NF-κB has been observed in various types of cancer. Constitutive activation of NF-κB often causes bad response or resistance to chemotherapeutics, tumor recurrence, and poor outcome of treatment. Conversely, inhibition of NF-κB could sensitize the glioma cells to chemotherapy. The combination of PTL with PTX and TMZ in the present study enhanced anti-glioma efficacy in experimental animals. Since PTL is a potent inhibitor of NF-κB, the inhibitory activities of different PTL formulations on NF-κB pathway were examined. Immunofluorescence was used to detect NF-κB activation and nuclear translocation. After treatment with different formulations for 24 h, cells were processed for confocal fluorescence microscopic imaging. […] In addition, we also analyzed the p65 protein level in the nucleus of U87 cells by western blotting (Figure S7) and the results were consistent with immunofluorescence.
NF-κB activation and nuclear translocation assay was performed according to the reagent manufacturer's instructions (Beyotime Biotech, China). Briefly, cells were seeded in four-well disk and then treated with different drug loaded micelles or free drug alone or in combinations for 24 h. […] The protein concentrations were quantified using BCA Protein Assay Kit (Thermo Fisher Scientific). […]

The next assay has as its system U87 cells. The assay is described as follows: Cellular internalization of fluorescein labelled peptides in U87 cells (flow cytometry). It is filed as cell-based. The note with it: 4 hours, Figure S1. The protocol: (§1) The targeting ability of ^DWVAP was evaluated in primary rat brain capillary endothelial cells (BCECs), HUVECs and U87 cells. […] OPC cells were previously proven as a cell line of glioma cell-of-origin with under-appreciated proliferative and plastic potentials. OPC cells were used here to evaluate the GSCs targeting effect of the developed peptides. […] In vivo, near-infrared dye Cy7 was conjugated with peptides and the conjugates were intravenously injected via the tail vein to test the targeting effect of ^DWVAP.
(§2) Brain capillary endothelial cells (BCEC), U87 cells and HUVEC cells were used to investigate the peptides targeting ability since they were main component of BBB, tumor and tumor vessels respectively. OPC cells were used to evaluate the glioma stem cell targeting ability in vitro [38]. Cellular uptake behavior was observed by the confocal microscope and the fluorescent intensity was captured by flow cytometry 4 hours after pre-incubation with different fluorescein labelled peptides.
(In general: Flow cytometry measures light scatter and fluorescence of single cells or particles in a stream.)

A further assay relates to HUVECs. The assay is described as follows: Cellular internalization of fluorescein labelled peptides in HUVECs (flow cytometry). It is filed as cell-based, human. The note with it: 4 hours, Figure S1. On the procedure:
as §1, §2

A further assay has as its system OPC cells. The assay can be described thus: Cellular internalization of fluorescein labelled peptides in OPC cells (GSC targeting). It is filed as cell-based. The note with it: confocal microscopy, Figure 2E. On the procedure: as §1, §2
Assay [2] has as its target T1, Recombinant human GRP78 protein (human, UniProt P11021 19-654).
T1 construct: GRP78, human, recombinant; No catalogue number, tag or limits printed; source: bought: Abcam
The assay can be described thus: SPR; Biacore T200; recombinant human GRP78 amine-coupled to a CM5 sensor chip; peptides in 2-fold serial dilution injected at 30 µL/min; buffer HBS-N or HBS-EP (methods). Conditions: both partners purified. For orientation: In SPR one partner is held on a chip, and binding of the other changes the refractive index at the surface.

Where a SMILES comes first, the peptide text is derived from it. Where no end group is shown, it is not given here. [ ]: non-standard residue; d: D form. Ahx = NCCCCCC(=O)O

T1 sequence (P11021 19-654): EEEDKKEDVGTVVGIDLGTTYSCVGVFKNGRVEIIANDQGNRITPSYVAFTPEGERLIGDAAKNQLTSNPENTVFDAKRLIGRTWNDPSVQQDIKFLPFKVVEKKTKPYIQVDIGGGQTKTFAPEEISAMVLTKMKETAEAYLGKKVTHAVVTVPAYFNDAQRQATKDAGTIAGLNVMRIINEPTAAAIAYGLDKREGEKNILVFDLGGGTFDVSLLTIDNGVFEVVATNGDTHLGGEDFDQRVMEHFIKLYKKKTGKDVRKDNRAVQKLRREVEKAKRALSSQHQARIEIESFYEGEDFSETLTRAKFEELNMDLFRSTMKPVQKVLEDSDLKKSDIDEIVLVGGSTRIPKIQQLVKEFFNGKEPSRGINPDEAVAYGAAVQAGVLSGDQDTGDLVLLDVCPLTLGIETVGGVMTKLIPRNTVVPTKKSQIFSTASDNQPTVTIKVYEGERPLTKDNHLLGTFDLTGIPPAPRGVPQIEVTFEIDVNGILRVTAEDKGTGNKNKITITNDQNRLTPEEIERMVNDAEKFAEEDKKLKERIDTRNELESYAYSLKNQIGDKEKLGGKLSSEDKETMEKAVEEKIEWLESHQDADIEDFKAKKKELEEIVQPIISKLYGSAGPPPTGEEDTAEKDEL

For `C=C1C(=O)O[C@H]2[C@H]1CC/C(C)=C/CC[C@@]1(C)O[C@@H]21` [PTL, Parthenolide], the median survival in the assay on intracranial U87 glioma (Figure S5B, 5 mg/kg PTL at 6, 8, 10, 12 and 14 days post-tumor implantation, saline 29.5 days) is given as 32 days. Besides, in assay [1], the p65 nuclear translocation entry is given as “inhibition of p65”. On to `CC(=O)O[C@H]1C(=O)[C@@]2(C)[C@H]([C@H](OC(=O)c3ccccc3)[C@]3(O)C[C@H](OC(=O)[C@H](O)[C@@H](NC(=O)c4ccccc4)c4ccccc4)C(C)=C1C3(C)C)[C@]1(OC(C)=O)CO[C@@H]1C[C@@H]2O` [Taxol, Paclitaxel], for which, in the assay on intracranial U87 glioma (Figure S5A, four injections, 6 mg/kg PTX each, at 6, 9, 12 and 15 days after implantation), the median survival time amounted to 20 days. As for `CC(C)[C@@H](NC(=O)[C@@H](CCCNC(=N)N)NC(=O)[C@H](NC(=O)[C@@H](CC(N)=O)NC(=O)[C@H](N)CO)[C@H](C)O)C(=O)N[C@H](C)C(=O)N1CCC[C@@H]1C(=O)N[C@H](CS)C(=O)O` [^DVAP] (HELM PEPTIDE1{[dS].[dN].[dT].[dR].[dV].[dA].[dP].[dC]}$$$$V2.0; N-terminus and C-terminus assumed), the “fluorescence-positive U87 cells” value with U87 cells is “More than 90%”. Also, the “fluorescence-positive HUVECs” value in the assay on HUVECs is on record as greater than 80%. In addition, the “uptake by OPC cells” value in the assay on OPC cells was “effectively taken up”.

B1: "Y-shaped" ^DWVAP peptide (peptide)
peptide: [dS][dN][dT][dR][dV][dA][dP][dC][Ahx][dW][dS][dW]G[dP][dY][dS]
modifications: not fully specified
notes: ^DVAP stretch (all-D) with D-Cys, ligand of GRP78; ^DWSW stretch (all-D), quorum-sensing peptide; joined to the first stretch through aminocaproic acid (Ahx), which has no one-letter code; also called ^DWVAP-Cys; ^DS^DN^DT^DR^DV^DA^DP^DC-Ahx-^DW^DS^DW^DG^DP^DY^DS; source: synthetic peptide (solid phase peptide synthesis)
As a reminder, the Kd is the constant that tells how readily two partners part at equilibrium. As to B1, the Kd in assay [2] came out at 686 nM.

B2: ^DVAP peptide (peptide)
peptide: [dS][dN][dT][dR][dV][dA][dP][dC]
notes: all-D peptide ligand of GRP78; also called ^DS^DN^DT^DR^DV^DA^DP; ^DS^DN^DT^DR^DV^DA^DP^DC; source: synthetic peptide, bought: Karebay Biochem
In the case of B2, in assay [2], the Kd was 102 nM.
